Each structure is given as a SMILES string.

For test [1], the target named is T1, IDO1 (Homo sapiens, UniProt P14902). Description: IDO1 Cellular Assay in HeLa Cells Stimulated with IFNγ. The class given is cell-based. Conditions: read-out: HeLa Cell Potency, IC50.
The target of test [2] is T1, IDO1. Description: IDO1 Human Whole blood Assay. Also on record: Human whole blood was drawn in sodium heparin coated tubes from healthy internal donors; from tissue; host or cells: human whole blood from healthy donors, stimulated with LPS and IFNγ. The class given is cell-based. Conditions: LPS and IFNγ stimulated, 18 h, read-out: Human Whole Blood Potency, IC50. The procedure:
IDO1Human Whole blood Assay
Compounds to be tested were serially diluted in ten 3-fold steps in DMSO starting from 10 mM. 3 μL of compound dilutions or DMSO alone were then dispensed from the dilution plate into a polypropylene 96-well assay plate containing 97 μL of RPMI medium using an Echo 555 acoustic liquid handler (Labcyte). LPS and IFNγ was prepared in RPMI medium to a 10× of final conc. (1000 ng/mL), final concentration is 100 ng/mL.
Human whole blood was drawn in sodium heparin coated tubes from healthy internal donors. 240 μL of blood was transferred to each of the wells of a v-bottom 96 well plate. 30 μL of compound was transferred from intermediate dilution plate, and incubated for 15 min. 30 μL from stimulants was then transferred to blood and mixed thoroughly. Plate was covered with breathable membrane and incubated at 37° C. for overnight (18 h).
On day 2, isotope labeled standard solutions of kynurenine and tryptophan was made in water at 10× concentration and 30 μL was added to the blood at 3 μM final concentration. The assay plates were centrifuged at 300×G for 10 min with no brake to separate plasma from red blood cells. 60 μL of plasma samples was removed without disturbing red blood cells. Plasma was diluted with RPMI in 1:1 ratio and proteins were precipitated out with two volumes of Acetonitrile. The plates were centrifuged at 4000×G for 60 min. 20 μL of supernatant was carefully transferred to a 384 well plate containing 40 μL of 0.1% formic acid in water and analyzed by LC/MS/MS.
LC/MS/MS analyses were performed using Thermo Fisher's LX4-TSQ Quantum Ultra system. This system consists of four Agilent binary high-performance liquid chromatography (HPLC) pumps and a TSQ Quantum Ultra triple quadrupole MS/MS instrument. For each sample, 5 μL were injected onto an Atlantis T3 column (2.1 mm×150 mm, 3 μm particle size) from Waters. The mobile phase gradient pumped at 0.8 mL/min was used to elute the analytes from the column at 25° C. The elution started at 0% B increasing linearly to 25% B at 6.5 min, holding at 25% for 1 min, re-equilibrating to 10 min. Mobile phase A consisted of 0.1% formic acid in water. Mobile phase B consisted of 0.1% of formic acid in acetonitrile. Data were acquired in positive mode using a HESI interface. The operational parameters for the TSQ Quantum Ultra instrument were a spray voltage of 4000 V, capillary temperature of 380° C., vaporizer temperature 400° C., shealth gas 60 arbitrary units, Aux gas 20 arbitrary units, tube lens 85 and collision gas 1.2 mTorr. SRM chromatograms of kynurenine (Q1: 209.2>Q3:94.0) and internal standard (Q1: 215.3>Q3:98.2) were collected for 90 sec. The peak area was integrated by Xcalibur Quan software. The ratios between the kynurenine generated in the reaction and 2D6-Kynurenine spiked-in internal standard were used to generate percentage inhibition and IC50 values. Compounds were titrated and IC50's were calculated by 4 parameter sigmoidal curve fitting formula.

T1 sequence (P14902 whole entry): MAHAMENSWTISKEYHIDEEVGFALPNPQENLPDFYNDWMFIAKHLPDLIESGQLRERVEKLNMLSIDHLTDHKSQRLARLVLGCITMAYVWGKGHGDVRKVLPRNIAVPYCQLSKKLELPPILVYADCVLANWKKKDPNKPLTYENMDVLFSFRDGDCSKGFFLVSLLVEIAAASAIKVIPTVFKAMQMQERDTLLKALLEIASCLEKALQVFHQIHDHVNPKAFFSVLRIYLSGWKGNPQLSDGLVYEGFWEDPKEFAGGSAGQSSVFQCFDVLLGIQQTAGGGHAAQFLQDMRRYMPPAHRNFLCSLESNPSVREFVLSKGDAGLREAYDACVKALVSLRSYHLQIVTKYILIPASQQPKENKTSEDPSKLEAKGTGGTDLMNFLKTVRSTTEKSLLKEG

For the compound `Cc1cccc(N2CCN(C(=O)Cn3nc(C(=O)N4CCC(NS(C)(=O)=O)CC4)c4c3CCC4)CC2)c1C` [Example 90, N-[1-(1-{2-[4-(2,3-dimethylphenyl)piperazin-1-yl]-2-oxoethyl}-1,4,5,6-tetrahydrocyclopenta[c]pyrazole-3-carbonyl)piperidin-4-yl]methanesulfonamide], the IC50 in test [1] came out at 2.9 nM; in test [2] it was 292 nM.
As for `Cc1cccc(N2CCN(C(=O)Cn3nc(C(=O)N4CC[C@@H](O)[C@H](F)C4)c4c3CCC4)CC2)c1C` [Example 91, 1-[4-(2,3-dimethylphenyl)piperazin-1-yl]-2-{3-[(3R,4R)-3-fluoro-4-hydroxypiperidine-1-carbonyl]-5,6-dihydrocyclopenta[c]pyrazol-1(4H)-yl}ethan-1-one], the half-inhibitory concentration (IC50) stood at 5.8 nM in test [1] and 9550 nM in test [2].
The corresponding values for `Cc1cccc(N2CCN(C(=O)Cn3nc(C(=O)N4CC[C@H](O)[C@H](F)C4)c4c3CCC4)CC2)c1C` [Example 92, 1-[4-(2,3-dimethylphenyl)piperazin-1-yl]-2-{3-[(3R,4S)-3-fluoro-4-hydroxypiperidine-1-carbonyl]-5,6-dihydrocyclopenta[c]pyrazol-1(4H)-yl}ethan-1-one] are 10.8 nM and 256 nM.
On the same counts, the results for `Cc1cccc(N2CCN(C(=O)Cn3nc(C(=O)N4CCC5(CCOC5)CC4)c4c3CCC4)CC2)c1C` [Example 93, 1-[4-(2,3-dimethylphenyl)piperazin-1-yl]-2-[3-(2-oxo-8-azaspiro[4.5]decane-8-carbonyl)-5,6-dihydrocyclopenta[c]pyrazol-1(4H)-yl]ethan-1-one] are 3.11 nM and 180 nM.
Consider `Cc1cccc(N2CCN(C(=O)Cn3nc(C(=O)N4CC[C@H](O)[C@@H](C)C4)c4c3CCC4)CC2)c1C` [Example 94, 1-[4-(2,3-dimethylphenyl)piperazin-1-yl]-2-{3-[(3S,4S)-4-hydroxy-3-methylpiperidine-1-carbonyl]-5,6-dihydrocyclopenta[c]pyrazol-1(4H)-yl}ethan-1-one], for which the concentration for half-maximal inhibition (IC50) in test [1] amounted to 2.46 nM; in test [2], 345 nM.
The corresponding values for `Cc1cccc(N2CCN(C(=O)Cn3nc(C(=O)N4CCC(CO)CC4)c4c3CCC4)CC2)c1C` [Example 101, 1-[4-(2,3-dimethylphenyl)piperazin-1-yl]-2-{3-[4-(hydroxymethyl)piperidine-1-carbonyl]-5,6-dihydrocyclopenta[c]pyrazol-1(4H)-yl}ethan-1-one] are 6.12 nM and 711 nM.
For the compound `Cc1cccc(N2CCN(C(=O)Cn3nc(C(=O)N4CC[C@@H](O)[C@@H](C)C4)c4c3CCC4)CC2)c1C` [Example 106, 1-[4-(2,3-dimethylphenyl)piperazin-1-yl]-2-{3-[(3S,4R)-4-hydroxy-3-methylpiperidine-1-carbonyl]-5,6-dihydrocyclopenta[c]pyrazol-1(4H)-yl}ethan-1-one], the half-inhibitory concentration (IC50) in test [1] amounted to 3.87 nM; in test [2], 802 nM.
On the same counts, the results for `Cc1cccc(N2CCN(C(=O)Cn3nc(C(=O)N4CC[C@H](O)[C@H](C)C4)c4c3CCC4)CC2)c1C` [Example 107, 1-[4-(2,3-dimethylphenyl)piperazin-1-yl]-2-{3-[(3R,4S)-4-hydroxy-3-methylpiperidine-1-carbonyl]-5,6-dihydrocyclopenta[c]pyrazol-1(4H)-yl}ethan-1-one] are 1.2 nM and 154 nM.
The corresponding values for `Cc1cccc(N2CCN(C(=O)Cn3nc(C(=O)N4CC[C@@H](O)[C@H](C)C4)c4c3CCC4)CC2)c1C` [Example 108, 1-[4-(2,3-dimethylphenyl)piperazin-1-yl]-2-{3-[(3R,4R)-4-hydroxy-3-methylpiperidin-1-carbonyl]-5,6-dihydrocyclopenta[c]pyrazol-1(4H)-yl}ethan-1-one] are 1.79 nM and 77 nM.
On the same counts, the results for `Cc1cccc(N2CCN(C(=O)Cn3nc(C(=O)N4CC[C@H](O)[C@@H](C)C4)c4c3CCC4)CC2)c1C` [Example 109, 1-[4-(2,3-dimethylphenyl)piperazin-1-yl]-2-{3-[(3S,4S)-4-hydroxy-3-methylpiperidine-1-carbonyl]-5,6-dihydrocyclopenta[c]pyrazol-1(4H)-yl}ethan-1-one] are 1.86 nM and 399 nM.
Consider `Cc1cccc(N2CCN(C(=O)Cn3nc(C(=O)N4CCC(OCCO)CC4)c4c3CCC4)CC2)c1C` [Example 120, 1-[4-(2,3-dimethylphenyl)piperazin-1-yl]-2-{3-[4-(2-hydroxyethoxy)piperidine-1-carbonyl]-5,6-dihydrocyclopenta[c]pyrazol-1(4H)-yl}ethan-1-one], for which the 50% inhibitory concentration (IC50) in test [1] amounted to 2.97 nM; in test [2], 199 nM.
The corresponding values for `Cc1cccc(N2CCN(C(=O)Cn3nc(C(=O)N4CCN(S(C)(=O)=O)C[C@@H]4C)c4c3CCC4)CC2)c1C` [Example 124, 1-[4-(2,3-dimethylphenyl)piperazin-1-yl]-2-{3-[(2S)-2-methyl-4-(methylsulfonyl)piperazine-1-carbonyl]-5,6-dihydrocyclopenta[c]pyrazol-1(4H)-yl}ethan-1-one] are 1.32 nM and 877 nM.
On the same counts, the results for `Cc1cccc(N2CCN(C(=O)Cn3nc(C(=O)N4CC[C@@H](O)C[C@@H]4C)c4c3CCC4)CC2)c1C` [Example 125, 1-[4-(2,3-dimethylphenyl)piperazin-1-yl]-2-{3-[(2S,4R)-4-hydroxy-2-methylpiperidine-1-carbonyl]-5,6-dihydrocyclopenta[c]pyrazol-1(4H)-yl}ethan-1-one] are 3.29 nM and 444 nM.
As for `COC1CCN(C(=O)c2nn(CC(=O)N3CCN(c4cccc(C)c4C)CC3)c3c2CCC3)CC1` [Example 126, 1-[4-(2,3-dimethylphenyl)piperazin-1-yl]-2-[3-(4-methoxypiperidine-1-carbonyl)-5,6-dihydrocyclopenta[c]pyrazol-1(4H)-yl]ethan-1-one], the figures for the IC50 in test [1] and in test [2] were 2.61 nM and 300 nM, respectively.
On to `Cc1cccc(N2CCN(C(=O)Cn3nc(C(=O)N4CCN(S(C)(=O)=O)CC4)c4c3CCC4)CC2)c1C` [Example 127, 1-[4-(2,3-dimethylphenyl)piperazin-1-yl]-2-{3-[4-(methylsulfonyl)piperazine-1-carbonyl]-5,6-dihydrocyclopenta[c]pyrazol-1(4H)-yl}ethan-1-one], for which the IC50 in test [1] worked out at 2.36 nM; in test [2] it was 126 nM.
On the same counts, the results for `CC(=O)NC1CCN(C(=O)c2nn(CC(=O)N3CCN(c4cccc(C)c4C)CC3)c3c2CCC3)CC1` [Example 128, N-[1-(1-{2-[4-(2,3-dimethylphenyl)piperazin-1-yl]-2-oxoethyl}-1,4,5,6-tetrahydrocyclopenta[c]pyrazole-3-carbonyl)piperidin-4-yl]acetamide] are 4.07 nM and 192 nM.
On the same counts, the results for `Cc1cccc(N2CCN(C(=O)Cn3nc(C(=O)N4CCC(n5ncnn5)CC4)c4c3CCC4)CC2)c1C` [Example 129, 1-[4-(2,3-dimethylphenyl)piperazin-1-yl]-2-{3-[4-(2H-tetrazol-2-yl)piperidine-1-carbonyl]-2,6-dihydrocyclopenta[c]pyrazol-1(4H)-yl}ethan-1-one] are 3.08 nM and 311 nM.
`Cc1cccc(N2CCN(C(=O)Cn3nc(C(=O)N4CCC(N5CCNC5=O)CC4)c4c3CCC4)CC2)c1C` [Example 130, 1-[1-(1-{2-[4-(2,3-dimethylphenyl)piperazin-1-yl]-2-oxoethyl}-1,4,5,6-tetrahydrocyclopenta[c]pyrazole-3-carbonyl)piperidin-4-yl]imidazolidin-2-one]: the IC50 in test [1] was found to be 3.54 nM; in test [2] it was 175 nM.
As to `Cc1cccc(N2CCN(C(=O)Cn3nc(C(=O)N4CCC(O)(CO)CC4)c4c3CCC4)CC2)c1C` [Example 141, 1-[4-(2,3-dimethylphenyl)piperazin-1-yl]-2-{3-[4-hydroxy-4-(hydroxymethyl)piperidine-1-carbonyl]-5,6-dihydrocyclopenta[c]pyrazol-1(4H)-yl}ethan-1-one], the 50% inhibitory concentration (IC50) in test [1] came out at 11.3 nM; in test [2], 360 nM.

(Values after patent US12264134B2 (Merck Sharp & Dohme LLC, priority 2018, dated 2025).)
